Assay results taken from patent publication US20230115945A1, “AMINOPYRIMIDINE COMPOUNDS” (TYRA BIOSCIENCES, INC., priority 2019, published 2023).

Tests used:
Settings in all cases: 11-point 3-fold dilution, qPCR readout
FGFR3 = target: T1, FGFR3 (Homo sapiens, UniProt P22607); assay: Kinase binding assay (Kd), FGFR3
T1 construct: made in house; host or cells: E. coli host derived from BL21, infected with T7 phage
Procedure: (§1) Kinase-tagged T7 phage strains were prepared in an E. coli host derived from the BL21 strain. E. coli were grown to log-phase and infected with T7 phage and incubated with shaking at 32° C. until lysis. The lysates were centrifuged and filtered to remove cell debris. Streptavidin-coated magnetic beads were treated with biotinylated small molecule ligands for 30 minutes at room temperature to generate affinity resins for kinase assays. The liganded beads were blocked with excess biotin and washed with blocking buffer SeaBlock (Pierce), 1% BSA, 0.05% Tween 20, 1 mM DTT to remove unbound ligand and to reduce non-specific binding. Binding reactions were assembled by combining kinases, liganded affinity beads, and test compounds in 1× binding buffer (20% SeaBlock, 0.17×PBS, 0.05% Tween 20, 6 mM DTT).
(§2) Test compounds were prepared as 111X stocks in 100% DMSO. Kds were determined using an 11-point 3-fold compound dilution series with three DMSO control points. All compounds for Kd measurements are distributed by acoustic transfer (non-contact dispensing) in 100% DMSO. The compounds were then diluted directly into the assays such that the final concentration of DMSO was 0.9%. All reactions performed in polypropylene 384-well plate. Each was a final volume of 0.02 ml. The assay plates were incubated at room temperature with shaking for 1 hour and the affinity beads were washed with wash buffer (lx PBS, 0.05% Tween 20). The beads were then re-suspended in elution buffer (lx PBS, 0.05% Tween 20, 0.5 μM non-biotinylated affinity ligand) and incubated at room temperature with shaking for 30 minutes. The kinase concentration in the eluates was measured by qPCR.
(§3) Binding constants were calculated with a standard dose-response curve using the Hill equation: […]
(§4) The Hill Slope was set to −1. Curves were fitted using a non-linear least square fit with the Levenberg-Marquardt algorithm.

FGFR3 (V555M) = target: T2, FGFR3 (V555M) (Homo sapiens, UniProt P22607, V555M); assay: Kinase binding assay (Kd), FGFR3 (V555M)
T2 construct: made in house; host or cells: E. coli host derived from BL21, infected with T7 phage
T2 sequence (P22607 23-806 V555M): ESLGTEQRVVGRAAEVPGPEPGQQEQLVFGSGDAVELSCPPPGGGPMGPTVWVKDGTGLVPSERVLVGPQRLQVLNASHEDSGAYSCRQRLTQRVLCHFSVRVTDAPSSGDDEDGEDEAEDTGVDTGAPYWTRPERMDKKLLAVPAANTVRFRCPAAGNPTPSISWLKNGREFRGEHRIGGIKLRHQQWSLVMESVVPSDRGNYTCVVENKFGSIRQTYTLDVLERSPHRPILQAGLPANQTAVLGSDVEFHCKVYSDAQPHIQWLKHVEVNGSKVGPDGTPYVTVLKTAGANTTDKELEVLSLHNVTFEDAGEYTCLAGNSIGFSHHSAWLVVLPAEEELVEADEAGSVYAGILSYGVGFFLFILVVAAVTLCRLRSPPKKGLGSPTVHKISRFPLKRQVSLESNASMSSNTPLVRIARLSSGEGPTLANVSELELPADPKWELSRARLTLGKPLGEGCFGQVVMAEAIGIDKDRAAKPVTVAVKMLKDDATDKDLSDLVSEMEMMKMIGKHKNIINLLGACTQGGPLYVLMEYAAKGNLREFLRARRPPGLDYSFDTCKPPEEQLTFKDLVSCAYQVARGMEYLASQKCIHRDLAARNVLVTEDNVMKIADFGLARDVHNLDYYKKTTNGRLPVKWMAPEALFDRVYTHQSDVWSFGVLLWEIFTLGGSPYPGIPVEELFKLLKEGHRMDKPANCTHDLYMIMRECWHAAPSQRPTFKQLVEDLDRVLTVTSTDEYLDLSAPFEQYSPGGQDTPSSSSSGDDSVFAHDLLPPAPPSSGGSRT
Procedure: as §1, §2, §3, §4

FGFR2 = target: T3, FGFR2 (Homo sapiens, UniProt P21802); assay: Kinase binding assay (Kd), FGFR2
T3 construct: made in house; host or cells: E. coli host derived from BL21, infected with T7 phage
T3 sequence (P21802 22-821): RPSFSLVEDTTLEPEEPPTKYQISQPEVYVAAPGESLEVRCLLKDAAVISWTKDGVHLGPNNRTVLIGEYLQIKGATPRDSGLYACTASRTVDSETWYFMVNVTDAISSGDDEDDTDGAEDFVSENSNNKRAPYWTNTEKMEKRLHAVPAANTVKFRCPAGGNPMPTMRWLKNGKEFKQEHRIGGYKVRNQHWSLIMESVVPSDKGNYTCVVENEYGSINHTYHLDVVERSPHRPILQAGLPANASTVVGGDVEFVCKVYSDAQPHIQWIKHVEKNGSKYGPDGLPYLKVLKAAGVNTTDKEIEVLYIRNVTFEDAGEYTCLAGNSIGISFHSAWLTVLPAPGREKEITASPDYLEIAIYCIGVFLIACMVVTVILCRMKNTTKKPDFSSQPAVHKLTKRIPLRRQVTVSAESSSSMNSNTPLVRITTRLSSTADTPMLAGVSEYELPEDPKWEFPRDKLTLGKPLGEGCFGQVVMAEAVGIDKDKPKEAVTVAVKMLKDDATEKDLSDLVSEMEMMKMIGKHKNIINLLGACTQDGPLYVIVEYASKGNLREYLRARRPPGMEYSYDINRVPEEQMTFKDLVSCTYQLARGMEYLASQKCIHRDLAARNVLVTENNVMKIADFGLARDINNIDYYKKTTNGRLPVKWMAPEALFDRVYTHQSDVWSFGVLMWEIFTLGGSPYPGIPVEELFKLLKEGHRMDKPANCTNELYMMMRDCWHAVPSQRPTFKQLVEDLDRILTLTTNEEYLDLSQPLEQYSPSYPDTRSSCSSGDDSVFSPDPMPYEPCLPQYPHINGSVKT
Procedure: as §1, §2, §3, §4

FGFR1 = target: T4, FGFR1 (Homo sapiens, UniProt P11362); assay: Kinase binding assay (Kd), FGFR1
T4 construct: made in house; host or cells: E. coli host derived from BL21, infected with T7 phage
T4 sequence (P11362 22-822): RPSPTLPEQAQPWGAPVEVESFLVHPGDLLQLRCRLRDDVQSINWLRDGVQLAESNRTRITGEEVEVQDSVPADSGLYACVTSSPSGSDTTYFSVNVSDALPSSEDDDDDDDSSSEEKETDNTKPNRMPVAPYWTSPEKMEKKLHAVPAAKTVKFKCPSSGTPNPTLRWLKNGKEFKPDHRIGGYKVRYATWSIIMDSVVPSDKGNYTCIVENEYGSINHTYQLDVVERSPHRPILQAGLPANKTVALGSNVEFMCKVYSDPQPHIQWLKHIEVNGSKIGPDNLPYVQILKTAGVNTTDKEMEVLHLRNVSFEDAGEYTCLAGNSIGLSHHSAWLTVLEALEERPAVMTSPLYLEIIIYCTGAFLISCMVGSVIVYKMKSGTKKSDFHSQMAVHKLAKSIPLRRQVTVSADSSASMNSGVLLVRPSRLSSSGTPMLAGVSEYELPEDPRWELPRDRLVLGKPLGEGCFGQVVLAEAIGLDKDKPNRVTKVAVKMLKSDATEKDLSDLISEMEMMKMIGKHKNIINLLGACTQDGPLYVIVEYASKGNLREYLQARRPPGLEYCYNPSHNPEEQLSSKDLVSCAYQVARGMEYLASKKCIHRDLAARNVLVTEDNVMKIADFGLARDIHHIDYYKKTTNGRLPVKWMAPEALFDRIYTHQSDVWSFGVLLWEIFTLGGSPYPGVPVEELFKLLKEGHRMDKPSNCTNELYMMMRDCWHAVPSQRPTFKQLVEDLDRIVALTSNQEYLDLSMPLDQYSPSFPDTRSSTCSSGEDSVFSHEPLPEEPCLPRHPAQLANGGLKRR
Procedure: as §1, §2, §3, §4

FGFR4 = target: T5, FGFR4 (Homo sapiens, UniProt P22455); assay: Kinase binding assay (Kd), FGFR4
T5 construct: made in house; host or cells: E. coli host derived from BL21, infected with T7 phage
T5 sequence (P22455 22-802): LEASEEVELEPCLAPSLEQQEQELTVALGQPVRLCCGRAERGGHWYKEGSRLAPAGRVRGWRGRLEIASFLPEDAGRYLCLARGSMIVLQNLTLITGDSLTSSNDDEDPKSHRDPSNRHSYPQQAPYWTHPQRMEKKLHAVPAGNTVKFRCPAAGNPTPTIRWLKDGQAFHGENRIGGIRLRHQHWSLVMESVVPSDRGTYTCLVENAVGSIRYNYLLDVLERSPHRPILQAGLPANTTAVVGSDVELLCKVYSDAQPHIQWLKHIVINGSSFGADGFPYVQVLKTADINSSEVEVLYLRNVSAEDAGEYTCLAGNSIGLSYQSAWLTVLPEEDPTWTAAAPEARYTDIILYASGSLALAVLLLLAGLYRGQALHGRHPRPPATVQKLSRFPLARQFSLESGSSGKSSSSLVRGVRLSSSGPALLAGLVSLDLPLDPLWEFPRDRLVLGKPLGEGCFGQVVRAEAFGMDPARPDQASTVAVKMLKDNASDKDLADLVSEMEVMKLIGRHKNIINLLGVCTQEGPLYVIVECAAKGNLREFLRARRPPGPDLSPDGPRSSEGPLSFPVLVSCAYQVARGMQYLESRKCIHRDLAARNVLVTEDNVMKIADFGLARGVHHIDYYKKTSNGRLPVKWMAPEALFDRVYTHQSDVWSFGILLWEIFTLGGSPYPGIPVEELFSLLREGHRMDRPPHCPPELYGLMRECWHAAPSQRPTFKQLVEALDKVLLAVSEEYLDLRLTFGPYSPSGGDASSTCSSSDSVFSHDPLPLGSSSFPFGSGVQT
Procedure: as §1, §2, §3, §4

T1 sequence (P22607 23-806): as the sequence (P22607 23-806 V555M) above, with M533V counted along it

Row | Compound | Kd (FGFR3) [nM] | Kd (FGFR3 (V555M)) [nM] | Kd (FGFR2) [nM] | Kd (FGFR1) [nM] | Kd (FGFR4) [nM]
1 | C=CC(=O)Nc1ccc2c(ccn2-c2nc(Nc3ccc(S(C)(=N)=O)cc3OC)ncc2Cl)c1 (single isomer, unassigned) [Example 88, N-[1-[5-Chloro-2-[2-methoxy-4-(methylsulfonimidoyl)-anilino]-pyrimidin-4-yl]indol-5-yl]prop-2-enamide] | 8800 | 840 | 26000 | 20000 | 
2 | CC(C)COc1cc(N=S(C)(C)=O)ccc1Nc1ncc(Cl)c(-c2c[nH]c3ccccc23)n1 [Example 4, 5-chloro-N-[4-[[dimethyl(oxo)-λ^6-sulfanylidene]amino]-2-isobutoxy-phenyl]-4-(1H-indol-3-yl)pyrimidin-2-amine] |  | 4100 |  | 21000 | 210
3 | CS(C)(=O)=Nc1ccc(Nc2ncc(Cl)c(-c3c[nH]c4ccccc34)n2)cc1 [Example 8, 5-chloro-N-[4-[[dimethyl(oxo)-λ^6-sulfanylidene]amino]phenyl]-4-(1H-indol-3-yl)pyrimidin-2-amine] | 29 | 4 | 24 | 19 | 180
4 | CS(C)(=O)=Nc1ccc(Nc2nccc(-c3c[nH]c4ccccc34)n2)cc1 [Example 10, N-[4-[[dimethyl(oxo)-λ^6-sulfanylidene]amino]phenyl]-4-(1H-indol-3-yl)pyrimidin-2-amine] | 370 | 57 | 3300 | 350 | 57
5 | CS(C)(=O)=Nc1ccc(Nc2cc(-c3c[nH]c4ccccc34)ncn2)cc1 [Example 12, N-[4-[[dimethyl(oxo)-λ^6-sulfanylidene]amino]phenyl]-6-(1H-indol-3-yl)pyrimidin-4-amine] | 370 | 57 | 3300 | 350 | 57
6 | CS(C)(=O)=Nc1ccc(Nc2nccc(-n3ccc4ccccc43)n2)cc1 [Example 13, N-[4-[[dimethyl(oxo)-λ^6-sulfanylidene]amino]phenyl]-4-indol-1-yl-pyrimidin-2-amine] | 370 | 57 | 3300 | 350 | 57
7 | Cc1cnc(Nc2ccc(N=S(C)(C)=O)cc2)nc1-n1ccc2ccccc21 [Example 14, N-[4-[[dimethyl(oxo)-λ^6-sulfanylidene]amino]phenyl]-4-indol-1-yl-5-methyl-pyrimidin-2-amine] | 170 | 9 | 110 | 190 | 1500
8 | CS(C)(=O)=Nc1ccc(Nc2cc(-n3ccc4ccccc43)ncn2)cc1 [Example 15, N-[4-[[dimethyl(oxo)-λ^6-sulfanylidene]amino]phenyl]-6-indol-1-yl-pyrimidin-4-amine] | 18000 | 3700 | 14000 | 29000 | 
9 | CN1CCS(=O)(=Nc2ccc(Nc3nccc(-n4ccc5ccccc54)n3)cc2)CC1 [Example 16, 4-Indol-1-yl-N-[4-[(4-methyl-1-oxo-1,4-thiazinan-1-ylidene)amino]phenyl]-pyrimidin-2-amine] | 570 | 140 | 600 | 2200 | 9500
10 | CS(C)(=O)=Nc1ccc(Nc2nccc(-n3ccc4ccccc43)n2)c(N)c1 [Example 18, 4-[[dimethyl(oxo)-λ^6-sulfanylidene]amino]-N1-(4-indol-1-ylpyrimidin-2-yl)benzene-1,2-diamine] | 20000 | 12000 | 21000 |  | 
11 | C=CC(=O)Nc1cc(N=S(C)(C)=O)ccc1Nc1nccc(-n2ccc3ccccc32)n1 [Example 19, N-[5-[[dimethyl(oxo)-λ^6-sulfanylidene]amino]-2-[(4-indol-1-ylpyrimidin-2-yl)amino]phenyl]prop-2-enamide] |  | 3000 |  |  | 
12 | CC(=O)c1cn(-c2nc(Nc3ccc(N=S(C)(C)=O)cc3)ncc2C)c2ccccc12 [Example 21, 1-[1-[2-[4-[[Dimethyl(oxo)-λ^6-sulfanylidene]amino]anilino]-5-methyl-pyrimidin-4-yl]indol-3-yl]ethanone] | 27000 |  |  |  | 

More lines, now with the values ahead:

Row | Kd (FGFR3) [nM] | Kd (FGFR3 (V555M)) [nM] | Kd (FGFR2) [nM] | Kd (FGFR1) [nM] | Kd (FGFR4) [nM] | Compound
13 | 170 | 15 | 370 | 140 | 130 | COc1cc(N=S(C)(C)=O)ccc1Nc1ncc(Cl)c(-c2c[nH]c3ccccc23)n1 [Example 1, 5-chloro-N-[4-[[dimethyl(oxo)-λ^6-sulfanylidene]amino]-2-methoxy-phenyl]-4-(1H-indol-3-yl)pyrimidin-2-amine]
14 | 430 | 53 | 1900 | 480 | 39 | CCOc1cc(N=S(C)(C)=O)ccc1Nc1ncc(Cl)c(-c2c[nH]c3ccccc23)n1 [Example 2, 5-Chloro-N-[4-[[dimethyl(oxo)-λ^6-sulfanylidene]amino]-2-ethoxy-phenyl]-4-(1H-indol-3-yl)pyrimidin-2-amine]
15 | 4300 | 420 | 14000 | 3300 | 6200 | COc1c(N=S(C)(C)=O)cccc1Nc1ncc(Cl)c(-c2c[nH]c3ccccc23)n1 [Example 5, 5-chloro-N-[3-[[dimethyl(oxo)-λ^6-sulfanylidene]amino]-2-methoxy-phenyl]-4-(1H-indol-3-yl)pyrimidin-2-amine]
16 | 1100 | 90 | 1700 | 390 | 2000 | COc1ccc(N=S(C)(C)=O)cc1Nc1ncc(Cl)c(-c2c[nH]c3ccccc23)n1 [Example 6, 5-chloro-N-[5-[[dimethyl(oxo)-λ^6-sulfanylidene]amino]-2-methoxy-phenyl]-4-(1H-indol-3-yl)pyrimidin-2-amine]
17 | 40 | 4 | 140 | 21 | 280 | CS(C)(=O)=Nc1cccc(Nc2ncc(Cl)c(-c3c[nH]c4ccccc34)n2)c1 [Example 7, 5-chloro-N-[3-[[dimethyl(oxo)-λ^6-sulfanylidene]amino]phenyl]-4-(1H-indol-3-yl)pyrimidin-2-amine]
18 | 370 | 57 | 3300 | 350 | 57 | CCOc1cc(N=S(C)(C)=O)ccc1Nc1ncc(C)c(-c2c[nH]c3c(C)cccc23)n1 [Example 9, N-[4-[[dimethyl(oxo)-λ^6-sulfanylidene]amino]-2-ethoxy-phenyl]-5-methyl-4-(7-methyl-1H-indol-3-yl)pyrimidin-2-amine]
19 | 27 | 4 | 51 | 37 | 120 | C=CC(=O)Nc1cc(N=S(C)(C)=O)ccc1Nc1ncc(C)c(-c2c[nH]c3ccccc23)n1 [Example 20, N-[5-[[Dimethyl(oxo)-λ^6-sulfanylidene]amino]-2-[[4-(1H-indol-3-yl)-5-methyl-pyrimidin-2-yl]amino]phenyl]prop-2-enamide]
20 | 44 | 4 | 63 | 27 | 290 | Cc1ccc2c(-c3nc(Nc4ccc(N=S(C)(C)=O)cc4)ncc3C)c[nH]c2c1 [Example 28, N-[4-[[dimethyl(oxo)-λ^6-sulfanylidene]amino]phenyl]-5-methyl-4-(6-methyl-1H-indol-3-yl)pyrimidin-2-amine]
21 | 21 | 4 | 46 | 15 | 210 | Cc1cnc(Nc2ccc(N=S(C)(C)=O)cc2)nc1-c1c[nH]c2cc(F)ccc12 [Example 29, N-[4-[[dimethyl(oxo)-λ^6-sulfanylidene]amino]phenyl]-4-(6-fluoro-1H-indol-3-yl)-5-methyl-pyrimidin-2-amine]
22 | 35 | 2 | 41 | 27 | 190 | COc1ccc2c(-c3nc(Nc4ccc(N=S(C)(C)=O)cc4)ncc3C)c[nH]c2c1 [Example 30, N-[4-[[dimethyl(oxo)-λ^6-sulfanylidene]amino]phenyl]-4-(6-methoxy-1H-indol-3-yl)-5-methyl-pyrimidin-2-amine]
23 | 3 | 1 | 3 | 2 | 52 | COc1cc(Nc2ncc(C)c(-c3c[nH]c4c(F)cccc34)n2)ccc1N=S(C)(C)=O [Example 32, N-[4-[[dimethyl(oxo)-λ^6-sulfanylidene]amino]-3-methoxy-phenyl]-4-(7-fluoro-1H-indol-3-yl)-5-methyl-pyrimidin-2-amine]
